Results taken from PMC3836994, “Killer Bee Molecules: Antimicrobial Peptides as Effector Molecules to Target Sporogonic Stages of Plasmodium” (PLoS Pathogens, 2013).

Legend:
[1] = tested on: Anopheles gambiae Sua 4.0 cells; assay: Sua 4.0 mosquito cell growth (cell counts); assay type: cell-based; conditions: 25 µM AMP; for Average number of cells over 3 replicates, peptide: seeded 30×10^4/ml, mean of 3 experiments
Protocol: (§1) To establish potential effects of AMPs on mosquito cells, the An. gambiae Sua 4.0 cell line was used. This facilitated an initial high-throughput screening and provided insights into AMP toxicity, mode of action (lytic or other) and speed of action. Sua 4.0 cells were maintained at 27°C in Schneider's insect medium supplemented with 10% FBS (foetal bovine serum) in T25 culture flasks (Fisher, UK).
(§2) Each AMP was tested separately to establish if it affected cell viability and growth. […] Cells were maintained for 3, 6, 24 or 48 h, after which they were resuspended and a sub-sample from duplicate wells counted using a haemocytometer. To establish cell viability after 48 h (whether simply arrested in development or non-viable), resuspended cells were added to an equal volume of 5% erythrosin B vital dye and viable cells excluding the stain were counted. The viability of 100 cells in triplicate wells was recorded. Each AMP assay was performed in triplicate and included a negative control minus the peptide (5 µl of water alone added to the medium) and a further control of 5 µl of 10% SDS (sodium dodecyl sulphate) substituted for the AMP as this causes 100% cell lysis.

P. berghei ookinetes = assay: P. berghei ookinete viability in vitro (erythrosin B); assay type: cell-based, Plasmodium berghei; conditions: 50 µM of single peptide, 30 min
Protocol: Our primary aim was to target parasites in mosquitoes before they cross the midgut wall, therefore AMPs were first assessed for their ability to kill ookinetes in vitro. […] Ookinete cultures of P. berghei were established from gametocytaemic blood as previously described. Parasites were enriched using cold 0.17M ammonium chloride after 18 h of culture and washed thoroughly with PBS (phosphate buffered saline). Parasites were seeded in triplicate wells of a 96-well microtitre plate at a density of 1×10^5/ml in a volume of 47.5 µl Schneider's insect medium (Invitrogen) with 2.5 µl of the test AMP (final concentration of 50 µM). Ookinetes were incubated for 30 min in conjunction with triplicate control wells containing medium with 2.5 µl of water instead of AMP. A sub-sample of parasites was then added to an equal volume of 5% erythrosin B to assess viability (150 ookinetes in total, taken from 3 wells). Each of the 33 AMPs was screened in this way and assays were performed 3 times. AMPs displaying a high degree of toxicity (>90% of ookinetes displaying erythrosin B staining) underwent further ookinete assays using a concentration of 100 µM AMP. To assess synergistic effects, combinations of two peptides were also tested at a concentration of 25 µM per AMP, in the assay described above.

[2] = tested on: Anopheles gambiae Sua 4.0 cells; assay: Sua 4.0 mosquito cell viability (erythrosin B exclusion); assay type: cell-based; set-up: dose or concentration left out as unconfirmed; conditions: after 48 h culture; versus control
Protocol: as §1, §2

P. falciparum [3] = conditions: added to blood meals at 30 µM; ref [35]; cited from earlier work
Protocol: Some candidate AMPs were additionally investigated using P. falciparum and An. gambiae. TP10 dimer and Melittin lowered both prevalence and intensity of P. falciparum infections produced from laboratory cultures. It has already been reported that the monomer of TP10, added to blood meals at 30 µM, reduced parasite prevalence by 35–45% [35].

Plasmodium spp. = conditions: An. gambiae infected with a variety of Plasmodium spp., magainin injected into the midgut haemocoel; ref [29]; cited from earlier work
Excerpt: (§3) Supplement ppat.1003790.s001.doc, table 1: Table S1. Peptide sequence, activity and source. | column: Sequence and description

P. falciparum [4] = assay: Field P. falciparum from gametocyte carriers membrane-fed to An. gambiae (Mali); assay type: in vivo, Plasmodium falciparum; conditions: 50 µM
Excerpt: Nyaganabougou, a village approximately 60 km south-west of the Malian capital, Bamako, was used as a site for the source of donors of malaria-infected blood. Due to its proximity to the river Niger, which provides perennial mosquito breeding sites, Nyaganabougou has high numbers of infected individuals and an extended transmission season. Mosquitoes used to establish the An. gambiae Mali colony used for this study were originally collected in the village of Kenieroba (a distance of 15 km from Nyaganabougou). Potential male and female gametocyte carriers between the ages of 6–10 were screened by thick smear and parasite species and density determined by local staff, led by Saibou Doumbia.
Gametocyte carriers were taken to the Malaria Research and Training Centre at the University of Bamako for blood donation. Approximately 4 ml of blood was extracted from carriers and immediately divided into 3 Hemotek membrane feeders for testing 2 separate AMPs and one control for each carrier. Peptides were added to 950 µl of gametocytaemic blood for a final concentration of 50 µM. All parasite-positive individuals were subsequently treated appropriately for parasites and associated symptoms, as determined by, and carried out by, local health workers in Nyaganabougou.
Approximately 120 adult female An. gambiae (Mali, 4–7 days old) were starved overnight, and allowed to feed on the gametocytaemic blood/AMP mix for 30 min. Engorged females were maintained on 10% glucose with 0.05% PABA for 8 days before dissection. No oviposition sites were provided so that fecundity could be measured by determining retained eggs. Mosquito wing length, numbers of retained eggs and oocysts were recorded, and triplicate peptide experiments were carried out on different mosquito cohorts, using blood from different donors. Where possible, a minimum of 50 mosquitoes were dissected for each condition.

[5] = tested on: wide spectrum of microorganisms; conditions: x as strong as magainin 2; ref [83]; cited from earlier work
Excerpt: as §3

## CC[C@H](C)[C@H](NC(=O)[C@H](CCCCN)NC(=O)[C@H](CCCCN)NC(=O)[C@H](C)NC(=O)[C@H](CC(C)C)NC(=O)[C@H](C)NC(=O)[C@H](C)NC(=O)[C@H](CC(C)C)NC(=O)[C@H](C)NC(=O)[C@H](CCCCN)NC(=O)[C@H](CC(C)C)NC(=O)[C@H](CC(N)=O)NC(=O)[C@@H](NC(=O)[C@H](CCCCN)NC(=O)CNC(=O)[C@H](CC(C)C)NC(=O)[C@H](CC(C)C)NC(=O)[C@H](Cc1ccc(O)cc1)NC(=O)CNC(=O)[C@H](C)N)[C@@H](C)CC)C(=O)N[C@@H](CC(C)C)C(=O)O [TP10]
[1]; 3 hrs in culture
  Reduction in cell number (compared to control): 31%
[1]; 3 hrs in culture, haemocytometer count of duplicate wells
  Average number of cells over 3 replicates, peptide: 220000 mL⁻¹
[1]; 24 hrs in culture
  Reduction in cell number (compared to control): 23%
  Average number of cells over 3 replicates, peptide: 400000 mL⁻¹
[1]; 48 hrs in culture
  Reduction in cell number (compared to control): 3%
  Average number of cells over 3 replicates, peptide: 780000 mL⁻¹
P. berghei ookinetes; n = 150 ookinetes per treatment per replicate
  Average ookinete viability (3 reps), peptide: 26%
P. berghei ookinetes; versus control
  Reduction in ookinete viability: 71%
[2]
  Reduction in cell viability: 3%
P. falciparum [3]
  Reduction of parasite prevalence: 35–45%

## GIGKFLHSAKKFGKAFVGEIMNS [Magainin II, AMP from Xenopus laevis skin, forms pores]
Plasmodium spp.
  Oocyst development abolished: GIGKFLHSAKKFGKAFVGEIMNS. AMP from Xenopus laevis skin. Forms pores and induces cell permeabilisation. An. gambiae infected with a variety of Plasmodium spp. injected with magainin into the midgut haemocoel abolished oocyst development >80%.

## KGRGKQGGKVRAKAKTRSS [Parasin, Parasin I, Isolated from the skin mucus of wounded catfish]
P. falciparum [4]; Replicate 1, blood of gametocyte carriers, progeny of field An. gambiae
  Oocyst prevalence (oocyst positive mosquitoes), peptide: 3% (64)
P. falciparum [4]; Replicate 1, field parasites and mosquitoes
  Oocyst intensity (mean number of oocysts per gut, range in parentheses), peptide: <1 (0–2)
P. falciparum [4]; single preliminary experiment
  Reduction of prevalence: 80%
[5]
  Activity relative to magainin 2: KGRGKQGGKVRAKAKTRSS. Isolated from the skin mucus of wounded catfish. Strong activity (12-100x as strong as magainin 2) against a wide spectrum of microorganisms, without any haemolytic activity.
